# Measurements from patent US20140066498A1, “TRITERPENOID DERIVATIVES, BENZENOID DERIVATIVES, AND PHARMACEUTICAL COMPOSITIONS CONTAINING THE SAME” (National Cheng Kung University, priority 2010, published 2014).
# Where two headings read alike, the source gives them in different places.
# Experiments:
# [1] = target: T1, nitric oxide synthase (NOS) (Mus musculus, UniProt P29477); test: NOS activity: LPS-induced NO production in murine microglial cells (BV2)
# T1 sequence (P29477 1-1144): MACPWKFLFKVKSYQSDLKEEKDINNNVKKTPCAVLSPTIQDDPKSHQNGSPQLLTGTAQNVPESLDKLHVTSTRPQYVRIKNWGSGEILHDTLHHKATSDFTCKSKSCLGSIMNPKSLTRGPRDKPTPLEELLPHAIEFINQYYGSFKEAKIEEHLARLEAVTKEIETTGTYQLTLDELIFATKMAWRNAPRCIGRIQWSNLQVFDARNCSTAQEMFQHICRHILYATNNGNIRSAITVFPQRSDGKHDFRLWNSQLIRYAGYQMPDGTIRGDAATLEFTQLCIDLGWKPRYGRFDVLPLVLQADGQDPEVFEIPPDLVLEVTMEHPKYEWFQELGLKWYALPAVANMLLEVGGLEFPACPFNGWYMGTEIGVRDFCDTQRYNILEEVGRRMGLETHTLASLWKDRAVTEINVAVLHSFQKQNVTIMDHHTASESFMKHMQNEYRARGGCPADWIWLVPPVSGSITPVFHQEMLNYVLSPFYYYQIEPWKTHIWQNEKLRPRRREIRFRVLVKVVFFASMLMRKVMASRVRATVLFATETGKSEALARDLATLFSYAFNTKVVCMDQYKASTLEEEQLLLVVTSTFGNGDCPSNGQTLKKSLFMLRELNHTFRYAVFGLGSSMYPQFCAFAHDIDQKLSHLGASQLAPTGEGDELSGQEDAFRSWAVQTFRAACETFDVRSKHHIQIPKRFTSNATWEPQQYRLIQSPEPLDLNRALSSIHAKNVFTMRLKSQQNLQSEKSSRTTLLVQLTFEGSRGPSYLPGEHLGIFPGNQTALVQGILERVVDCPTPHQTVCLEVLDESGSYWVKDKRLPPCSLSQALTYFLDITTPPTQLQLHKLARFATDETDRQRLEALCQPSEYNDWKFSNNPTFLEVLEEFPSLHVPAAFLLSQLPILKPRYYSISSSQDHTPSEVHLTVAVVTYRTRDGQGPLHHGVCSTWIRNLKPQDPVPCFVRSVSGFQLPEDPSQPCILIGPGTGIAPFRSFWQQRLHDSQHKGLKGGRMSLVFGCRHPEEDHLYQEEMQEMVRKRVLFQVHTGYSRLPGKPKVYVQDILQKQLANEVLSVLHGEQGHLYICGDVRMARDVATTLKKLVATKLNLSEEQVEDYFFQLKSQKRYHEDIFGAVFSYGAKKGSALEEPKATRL
# Description: Microglial cell culture and measurements of mitric oxide (NO). The murine microglial cell line (BV2) was cultured, and the production of NO was measured by the methods as previously described (Wang, Y. H.; Wang, W. Y.; Chang, C. C.; Liou, K. T.; Sung, Y. J.; Liao, J. F.; Chen, C. F.; Chang, S.; Hou, Y. C.; Chou, Y. C.; Shen, Y. C. J. Biomed. Sci. 2006, 13, 127-141).
# [2] = test system: KB-VIN (multidrug-resistant strain); test: Cytotoxicity assay against KB-VIN cells in vitro; assay type: cell-based, human
# [3] = test system: Hep2 (human laryngeal carcinoma); test: MTT cytotoxicity assay, Hep2; assay type: cell-based; details: Hep2 cell line
# Description: (§1) Compounds II-7-II-9, II-13, II-14, II-20, II-21, II-25-II-33, and II-36 were assayed for cytotoxic activity against Doay (human medulloblastoma), Hep2 (human laryngeal carcinoma), MCF-7 (human breast adenocarcinoma), and Hela (human cervical epitheloid carcinoma) cell lines, using a MTT assay method.
# [4] = test system: Hela (human cervical epitheloid carcinoma); test: MTT cytotoxicity assay, Hela; assay type: cell-based; details: Hela cell line
# Description: as §1
# [5] = test system: Daoy (human medulloblastoma); test: MTT cytotoxicity assay, Daoy; assay type: cell-based; details: Daoy cell line
# Description: as §1
# [6] = test system: KB (human cancer cell); test: Cytotoxicity assay against KB cells in vitro; assay type: cell-based; details: NA@20 given for inactive
# [7] = test system: MCF-7 (human breast adenocarcinoma); test: MTT cytotoxicity assay, MCF-7; assay type: cell-based; details: MCF-7 cell line
# Description: as §1
# [8] = target: NADPH oxidase (NOX) (Homo sapiens, UniProt P04839); assay type: cell-based; details: ROS production triggered with fMLP (2 μM), 1-50 μM test drug, peripheral human neutrophils; mean ± S.E.M.; read-out: IC50 (μM) in NOX fMLP-induced NOX activation in PMN
# [9] = target: NADPH oxidase (NOX) (Mus musculus, UniProt Q61093); assay type: biochemical, murine; details: ROS production triggered with NADPH (200 μM), 1-50 μM test drug, BV2 cell lysate; mean ± S.E.M., 3-6 experiments; read-out: IC50 (μM) in NOX activity from BV2 cell lysate
# [10] = read-out: IC50 (μM) in NOS, LPS-induced NO production in BV2 cells, 1-50 μM test drug, mean ± S.E.M.
compound,measurement,setting,value
"C=C(CC[C@@H](C)C1CCC2C3=C(C(=O)C[C@@]21C)[C@@]1(C)CCC(O)[C@@H](C)C1CC3O)C(C)C(=O)O (stereo in doubt) [Compound I-2, 3α,7β-dihydroxy-11-oxo-4α-methylergosta-8,24(28)-dien-26-oic acid]",IC50,[1],15.7 ± 0.9 µM
same,EC50 (μM) KB-VIN,[2],NA@20
"C=C(CC[C@@H](C)C1CCC2C3=C(C(=O)C[C@@]21C)[C@@]1(C)CCC(O)[C@@H](C)C1CC3=O)C(C)C(=O)OC (stereo in doubt) [Compound I-5, methyl-3α-hydroxy-7,11-dioxo-4α-methylergosta-8,24(28)-dien-26-oate]",ED50 (μg/mL) Hep2,[3],7.0 µg/mL
same,ED50 (μg/mL) Hela,[4],9.0 µg/mL
same,ED50 (μg/mL) Daoy,[5],5.2 µg/mL
same,EC50,[6]; Homo sapiens,0.45 µM
same,EC50,"[2]; Homo sapiens, KBVIN",2.7 µM
same,ED50 (μg/mL) MCF-7,[7],6.6 µg/mL
"C=C(CC[C@@H](C)C1CCC2C3=C(C(=O)C[C@@]21C)[C@@]1(C)CCC(=O)[C@@H](C)C1CC3O)C(C)C(=O)OC (stereo in doubt) [Compound I-6, methyl-7β-hydroxy-3,11-dioxo-4α-methylergosta-8,24(28)-dien-26-oate]",ED50 (μg/mL) Hep2,[3],3.0 µg/mL
same,IC50,[1],2.5 µM
same,ED50 (μg/mL) Hela,[4],8.9 µg/mL
same,ED50 (μg/mL) Daoy,[5],4.4 µg/mL
same,EC50,[6]; Homo sapiens,2 µM
same,melting point,,100 to 101 °C
same,EC50,"[2]; Homo sapiens, KBVIN",2.9 µM
same,ED50 (μg/mL) MCF-7,[7],7.9 µg/mL
"C=C(CC[C@@H](C)C1CCC2C3=C(C(=O)C[C@@]21C)[C@@]1(C)CCC(=O)[C@@H](C)C1CC3O)C(C)C(=O)O (stereo in doubt) [Compound I-7, 7α-hydroxy-3,11-dioxo-4α-methylergosta-8,24(28)-dien-26-oic acid]",EC50,[6]; Homo sapiens,15 µM
same,EC50,"[2]; Homo sapiens, KBVIN",17.5 µM
"C=C(CC[C@@H](C)C1CCC2C3=C(C(=O)[C@H](O)[C@@]21C)[C@@]1(C)CC[C@@H](O)[C@@H](C)C1C[C@H]3O)C(C)C(=O)O (stereo partly drawn) [Compound I-1, 3α,7β,11α-trihydroxy-11-oxo-4α-methylergosta-8,24(28)-dien-26-oic acid]",EC50 (μM) KB,[6],NA@20
same,melting point,,117 to 119 °C
same,EC50 (μM) KB-VIN,[2],NA@20
"C=C(CC[C@@H](C)C1CCC2C3=C(C(=O)C[C@@]21C)[C@@]1(C)CC[C@@H](O)[C@](C)(O)C1CC3=O)C(C)C(=O)O (stereo partly drawn) [Compound I-3, 3α,4β-dihydroxy-7,11-dioxo-4α-methylergosta-8,24(28)-dien-26-oic acid]",EC50,[6]; Homo sapiens,0.3 µM
same,melting point,,186 to 188 °C
same,EC50,"[2]; Homo sapiens, KBVIN",2.3 µM
"C=C(CC[C@@H](C)[C@H]1CC[C@@]2(O)C3=C(C(=O)C[C@]12C)[C@@]1(C)CCC(=O)[C@@H](C)C1C[C@@H]3O)C(C)C(=O)O (stereo partly drawn) [Compound I-4, 7β,14α-dihydroxy-3,11-dioxo-4α-methylergosta-8,24(28)-dien-26-oic acid]",EC50,[6]; Homo sapiens,1 µM
same,melting point,,175 to 177 °C
same,EC50,"[2]; Homo sapiens, KBVIN",1.4 µM
"C=C(CC[C@@H](C)[C@H]1CC[C@H]2C3=C(C(=O)C[C@]12C)[C@@]1(C)CCC(=O)[C@@H](C)C1CC3)C(C)C (stereo partly drawn) [Compound I-8, 4α-methylergosta-8,24(28)-dien-3,11-dione]",EC50 (μM) KB,[6],NA@20
same,EC50 (μM) KB-VIN,[2],NA@20
"C[C@H](C=C[C@H](C)[C@H](C)CO)[C@H]1CC[C@H]2C3=CCC4CC(=O)CC[C@]4(C)[C@H]3CC[C@]12C (stereo partly drawn) [Compound I-9, (25S)-26-hydroxy-ergosta-7,22-dien-3-one]",IC50,[1],12.7 ± 2.2 µM
same,EC50 (μM) KB,[6],NA@20
same,melting point,,192 to 193 °C
same,EC50 (μM) KB-VIN,[2],NA@20
"C=C(CC[C@@H](C)[C@H]1CC[C@@H]2C3=C(C(=O)C[C@@]21C)[C@@]1(C)CCC(=O)[C@@H](C)C1CC3)C(C)C(=O)OC (stereo partly drawn) [Compound I-10, methyl-3,11-dioxo-4α-methyl-14β-ergosta-8,24(28)-dien-26-oate]",ED50 (μg/mL) Hep2,[3],— (ED50 > 20 μg/mL)
same,IC50,[1],1.6 µM
same,ED50 (μg/mL) Hela,[4],11.3 µg/mL
same,ED50 (μg/mL) Daoy,[5],—^a (ED50 > 20 μg/mL)
same,EC50 (μM) KB,[6],NA@20
same,melting point,,100 to 102 °C
same,EC50 (μM) KB-VIN,[2],NA@20
same,ED50 (μg/mL) MCF-7,[7],8.7 µg/mL
"C=C(CC[C@@H](C)[C@H]1CC[C@H]2C3=C(C(=O)C[C@]12C)[C@@]1(C)CCC(=O)[C@@H](C)[C@@H]1CC3=O)C(C)C(=O)O (stereo partly shown) [Compound I-11, zhankuic acid A]",ED50 (μg/mL) Hep2,[3],16.6 µg/mL
same,IC50,[1]; [10],3.6 µM
same,ED50 (μg/mL) Hela,[4],— (ED50 > 20 μg/mL)
same,ED50 (μg/mL) Daoy,[5],— (ED50 > 20 μg/mL)
same,EC50,[6],3 µM
same,EC50,[2],6.2 µM
same,ED50 (μg/mL) MCF-7,[7],— (ED50 > 20 μg/mL)
same,IC50,[8],22.1 ± 6.7 µM
"C=C(CC[C@@H](C)[C@H]1CC[C@H]2C3=C(C(=O)C[C@]12C)[C@@]1(C)CC[C@@H](O)[C@@H](C)[C@@H]1CC3=O)C(C)C(=O)O (stereo partly shown) [Compound I-12, zhankuic acid B]",IC50,[1]; [10],9.6 ± 0.7 µM
same,EC50,[6],7.3 µM
same,EC50,[2],8.5 µM
"C=C(CC[C@@H](C)[C@H]1CC[C@H]2C3=C(C(=O)C[C@]12C)[C@@]1(C)CCC(=O)[C@@H](C)[C@@H]1CC3=O)C(C)C(=O)OC (stereo partly shown) [Compound I-14, zhankuic acid A methyl ester]",IC50,[1]; [10],0.6 µM
same,EC50,[6],> 20 µM
same,EC50,[2],> 20 µM
same,IC50,[8],8.4 ± 2.1 µM
"C=C(CC[C@@H](C)[C@H]1CC[C@H]2C3=C(C(=O)C[C@]12C)[C@@]1(C)CCC(=O)[C@@H](C)[C@@H]1C[C@@H]3O)[C@H](C)C(=O)O [Compound I-16, antcin C]",IC50,[1]; [10],4.2 µM
same,EC50 (μM) KB,[6],NA@20
same,EC50 (μM) KB-VIN,[2],NA@20
same,IC50,[8],22.6 ± 3.3 µM
"C=C(CC[C@@H](C)[C@H]1CC[C@H]2C3=C(C(=O)C[C@]12C)[C@@]1(C)CC[C@@H](O)[C@](C)(O)[C@@H]1C[C@@H]3O)C(C)C(=O)O (stereo partly shown) [Compound I-17, antcin K]",EC50 (μM) KB,[6],NA@20
same,EC50 (μM) KB-VIN,[2],NA@20
same,IC50,[8],47.2 ± 8.4 µM
"CC(C)[C@@H](C)/C=C/[C@@H](C)[C@H]1CC[C@H]2C3=CC[C@H]4C[C@@H](O)CC[C@]4(C)C3=CC[C@]12C [Compound I-20, ergosterol D]",IC50,[1]; [10],30.6 ± 0.8 µM
same,IC50,[8],27.9 ± 5.6 µM
"C=C(CC[C@@H](C)[C@H]1CC[C@H]2C3=C(C(=O)C[C@]12C)[C@@]1(C)CCC(=O)[C@@H](C)C1CC3)C(C)C(=O)OC (stereo partly drawn) [Compound I-21, methyl 4α-methylergost-8,24(28)-dien-3,11-dion-26-oate]",IC50,[1],1.5 µM
"CC(C)[C@@H](C)/C=C/[C@@H](C)[C@H]1CC[C@@H]2[C@]1(C)CC[C@H]1[C@]23C=C[C@]2(C[C@@H](O)CC[C@]12C)OO3 [Compound I-22, ergosterol peroxide]",IC50,[1]; [10],6.3 ± 1.8 µM
"c1ccc2c(c1)[I+]c1ccccc1-2 [DPI, Diphenyleneiodonium, reference compound]",IC50,[9],0.4 µM
C=C(C)C#Cc1c(C)c(OC)c(OC)c2c1OCO2 [II-2],IC50,[1]; [10],12.1 µM
"COc1c(C)c(-c2c(C)c(OC)c3c(c2OC)OCO3)c(OC)c2c1OCO2 [II-7, 2,2′,5,5′-tetra-methoxy-3,4,3′,4′-bi-methylenedioxy-6,6′-dimethylbiphenyl]",IC50,[1]; [10],16.2 ± 1.4 µM
"COc1cc(C)c(OC)c2c1OCO2 [II-8, 4,7-dimethoxy-5-methyl-1,3-benzodioxole]",IC50,[1]; [10],29.1 ± 4.4 µM
eburicol [Compound I-19],EC50,[6],> 20 µM
same,EC50,[2],> 20 µM
